Literature values in the CATMoS acute toxicity set (Mansouri et al. 2021).
Values joined by “and” are separate entries in the source; they are usually repeats but may differ in a detail not shown here. Equal entries are not always repeated.

Experiment: rat acute oral toxicity
Details: in vivo
From the text: […]The data set underlying the modeling effort for this project was initially compiled by NICEATM and U.S. EPA’s CCTE. Briefly, LD50 data were collected from rat acute oral systemic toxicity tests, including limit tests, ranges/confidence intervals, and discrete LD50 values. The full data set included 21,200 LD50 entries for 15,688 substances. […] Data were reviewed to ensure that LD50 values with obvious errors in the extracted data such as unit conversion errors (e.g., comma and decimal separator misplacements) were either fixed or removed. After this review, 16,209 LD50 values remained. Many of the chemicals represented had multiple LD50 entries, requiring that a single representative value per Chemical Abstracts Service Registry Number (CASRN) identifier be defined to facilitate modeling efforts. Based on ATWG feedback and to define the representative LD50 as a protective value while accounting for the distribution across multiple LD50s, the median of the lowest quartile was computed using only discrete LD50 values (omitting limit test data and range and confidence interval data). A detailed summary of the data compilation is available online on the NICEATM webpage dedicated to the collaborative modeling project (NTP 2020).
[…][…] For categorical designations, limit test and range/confidence interval LD50 data were integrated wherever possible. As such, the number of chemicals with end point values/calls varies across the modeling end points (Table 3) based on whether chemicals had representative LD50 values and/or other data. If a chemical had both, the representative value was used to determine categorical calls rather than limit test data. Some data were useable only for certain end points and categories depending on the thresholds. For example, ranges that spanned multiple hazard categories were considered only for the binary (very toxic/nontoxic) end points and omitted from rendering a determination for hazard category assignment.
[…]The final data set comprising 11,992 chemicals was split into training and evaluation sets […], respectively. This process was performed semirandomly by ordering chemicals based on the five end points (categorical and continuous LD50 values) and partitioning every fourth record into the evaluation set accordingly. This approach was taken to ensure an equivalent distribution of the LD50 values and the different hazard categories between the training and the evaluation sets without supervised sampling of the chemicals based on structures (Figure 1A). The sources of the chemical structures were also kept equivalent between the two sets, with chemical structures obtained from DSSTox, being the highest quality, representing over 75% of each set (Figure 1B).

Compound	LD50
Cc1cccc2sc(N)nc12	500 mg/kg
COc1cccc(C=Nc2c(C)n(C)n(-c3ccccc3)c2=O)c1	5600 mg/kg
CNC(=O)C(C)SCCSP(=O)(OC)OC (configuration not stated)	64 mg/kg
CC1CCCC(C)N1CCCNc1n[nH]c2ccccc12 (configuration not stated)	700 mg/kg
CSc1ccc2c(c1)N(CCCN(C)C)c1ccccc1S2	1450 mg/kg
CC1(C)C2CCC1(C)C(Oc1ccc(N)cc1)C2 (configuration not stated)	660 mg/kg
CCCCCCCCCCCCCCCCCCCCCCO	10000 mg/kg
C#CCON=CC1=CCCNC1	80 mg/kg
Cc1ccc(-c2nc3n(c2C=NNC(=O)CN(C)C)CCS3)cc1	800 mg/kg
CC(=NNCCC1CCCCC1)C(=O)O	520 mg/kg
Cc1ccccc1CNC1=NCCS1	164 mg/kg
CC(C)(C#N)/N=N/C(C)(C)C#N	100 mg/kg
BrCBr	108 mg/kg
COc1ccc2c(c1)c(CC(=O)Oc1cccc(C(F)(F)F)c1)c(C)n2C(=O)c1ccc(Cl)cc1	307 mg/kg
ClCC1C(CCl)C2(Cl)C(Cl)=C(Cl)C1(Cl)C2(Cl)Cl (configuration not stated)	200 mg/kg
C=CC(=O)Nc1ccc(O)cc1	930 mg/kg
Cc1ccc(Cl)c(Nc2ccccc2C(=O)O)c1Cl	100 mg/kg
CCCSC(=O)Oc1c(C(C)CC)cc([N+](=O)[O-])cc1[N+](=O)[O-] (configuration not stated)	584 mg/kg
CN(C)CCOC1=Cc2ccccc2Sc2ccc(Cl)cc21	306 mg/kg
C=C(CO)C(=O)OCC	620 mg/kg
Cc1cccc(C(C)c2ccccc2)c1C (configuration not stated)	2050 mg/kg
Nc1ccc(Br)cc1	456 mg/kg
CC(C(=O)O)c1ccc(-c2ccccc2)c(F)c1 (configuration not stated)	117 mg/kg
CNC(=O)c1cnn(C(C)(C)C)c1C#N	392 mg/kg
C/C=C\COCN(C(=O)CCl)c1c(CC)cccc1CC	1630 mg/kg
Cc1c(Cl)cc(-c2ccc(O)nn2)cc1Cl	12000 mg/kg

Compound	LD50
NC(=S)NC(=S)Nc1ccccc1	250 mg/kg
c1ccc(-c2cccc(-c3ccccc3)c2)cc1	2400 mg/kg
CCCC(=O)Oc1ccc(OC)cc1	3400 mg/kg
Oc1cc2c3c(c1)c1cc4c(cc1c[n+]3CC2)OCO4	90 mg/kg
O=c1[nH]c2ccccc2n1C1CCN(CCCC(c2ccc(F)cc2)c2ccc(F)cc2)CC1	1100 mg/kg
NC(=O)N/N=C/c1ccc([N+](=O)[O-])o1	590 mg/kg
c1ccc(CCc2ccccc2)cc1	4520 mg/kg
CCCCCCOC(=O)CC(C(=O)OCCCCCC)S(=O)(=O)O (configuration not stated)	1750 mg/kg
CC1=C(C(=O)Nc2ccccc2)CCCO1	15000 mg/kg
O=c1occo1	300 mg/kg
CCC1(CC)C(=O)N=C(O)NC1=O	600 mg/kg
C#CC(C)(O)C(O)c1ccccc1 (configuration not stated)	730 mg/kg
Cc1ccc(N(SC(F)(Cl)Cl)S(=O)(=O)N(C)C)cc1	1000 mg/kg
CC(C)(C)c1cc(Cl)cc(Sc2cc(Cl)cc(C(C)(C)C)c2O)c1O	6100 mg/kg
Cc1ccc(N=c2sccn2C)c(C)c1	725 mg/kg
COc1ccc2c(c1)N(CCCN(C)C)c1ccccc1S2	730 mg/kg
C=CCSC(C)C1(CC(C)C)C(=O)N=C(O)NC1=O (configuration not stated)	417 mg/kg
c1ccc2c(c1)CN1CCN=C1N2	900 mg/kg
O=[N+]([O-])c1cc2nc(C(F)(F)F)[nH]c2cc1[N+](=O)[O-]	15.2 mg/kg
Nc1cc(N)cc(C(F)(F)F)c1	380 mg/kg
CCN(CC)CCN(CCN(CC)CC)n1cc(-c2ccc(Cl)cc2)c2cc(Cl)ccc21	780 mg/kg
C[N+]1(C)CCC(=C(c2ccccc2)c2ccccc2)CC1	1110 mg/kg
OCCSSCCO	173 mg/kg
Cc1c([N+](=O)[O-])cc(N)cc1[N+](=O)[O-]	959 mg/kg
O=C1CNC(=S)N1	420 mg/kg
CC(C)c1ccc2oc3nc(N)c(C(=O)O)cc3c(=O)c2c1	10000 mg/kg

Compound	LD50
COc1ccc2c(c1)c(CC(=O)O)c(C)n2C(=O)/C=C/c1ccccc1	900 mg/kg
CCC(C)C(CN(C)C)c1ccc(Cl)cc1Cl (configuration not stated)	567 mg/kg
Oc1ccc(C(O)CNCCCCCCNCC(O)c2ccc(O)c(O)c2)cc1O (configuration not stated)	10000 mg/kg
CCOC(=O)c1noc(C)c1C(=O)c1ccccc1	1000 mg/kg
CCN(CC)CCO	1300 mg/kg
O=C(OCCN1CCOCC1)c1cccnc1Nc1cccc(C(F)(F)F)c1	4300 mg/kg
O=CNC(Nc1ccc(Cl)c(Cl)c1)C(Cl)(Cl)Cl (configuration not stated)	2500 mg/kg
O=C1CCC(=O)N1	14000 mg/kg
CCOC(=O)N(C)CC1CCN(c2nc(N)c3cc(OC)c(OC)cc3n2)CC1	660 mg/kg
CN1Cc2c(N)cccc2C(c2ccccc2)C1 (configuration not stated)	267 mg/kg and 430 mg/kg
O=[N+]([O-])c1ccc(O)c(Cl)c1	900 mg/kg
NS(=O)(=O)c1cc(C(=O)O)cc(N2CCCC2)c1Oc1ccccc1	5600 mg/kg
N#Cc1ccc(C2CCCc3cncn32)cc1 (configuration not stated)	200 mg/kg
CC(NCCO)c1ccccc1 (configuration not stated)	2830 mg/kg
O=[N+]([O-])c1cc2nc(C(F)(F)F)[nH]c2cc1Cl	5.55 mg/kg
CC(=O)OCCCl	10 mg/kg
CC(C)(N)CO	2900 mg/kg
CC(=O)Nc1cccc2c3ccccc3n(C)c12	3120 mg/kg
COP(=S)(OC)SCSCCOC(N)=O	44 mg/kg
COc1cc(NC(=O)C(N=Nc2ccc(-c3ccc(N=NC(C(C)=O)C(=O)Nc4ccc(C)cc4C)c(Cl)c3)cc2Cl)C(C)=O)c(OC)cc1Cl (configuration not stated)	2230 mg/kg
CC(O)C(c1ccc2c(c1)OCO2)N1CCOCC1 (configuration not stated)	2470 mg/kg
CCOC(C(=O)O)(c1ccccc1)c1ccccc1	1000 mg/kg
O=C1OC(c2ccc(O)cc2)(c2ccc(O)cc2)c2c(I)c(I)c(I)c(I)c21	2800 mg/kg
COC(=O)Cc1ccccc1	2550 mg/kg
CC12CCC(=O)CC1CCC1C2CCC2(C)C(C(=O)COC(=O)CCC(=O)O)CCC12 (configuration not stated)	700 mg/kg
Oc1ccc(Cl)cc1-c1ccccc1	3500 mg/kg

Compound	LD50
CC(O)c1cc(N)cc(C(F)(F)F)c1 (configuration not stated)	880 mg/kg
O=[N+]([O-])c1c(Cl)c([N+](=O)[O-])c2[nH]c(C(F)(F)F)nc2c1Cl	117 mg/kg
CC(N)C12CC3CC(CC(C3)C1)C2 (configuration not stated)	640 mg/kg
Cc1cccc2sc3nncn3c12	250 mg/kg
CC(=O)OCc1ccc(C(C)C)cc1	1450 mg/kg
Cc1ccc(OCC(O)CNC(C)(C)C)c2oc(=O)ccc12 (configuration not stated)	676 mg/kg
Nc1cc(Cl)ccc1Oc1ccc(Cl)cc1Cl	2290 mg/kg
CC(C)COC(=O)CCCOc1ccc(Cl)cc1Cl	300 mg/kg
CC(C)=CCCC(C)=CCCC(=CCCC(C)=CCO)CO	10900 mg/kg
NC(N)=O	350 mg/kg
O=CCC1CC2CC1C1CCCC21 (configuration not stated)	500 mg/kg
O=C(Oc1ccccc1)c1ccccc1O	3000 mg/kg
N#CN=c1ccccn1Cc1c(Cl)cccc1Cl	500 mg/kg
CN(C)N=Nc1ccc(I)cc1	574 mg/kg
C=CC(=O)OCCN(CC)CC	770 mg/kg
CCS(=O)(=O)Oc1ccc2c(c1)C(C)(C)CO2	2030 mg/kg
Cc1cccs1	3200 mg/kg
CCCC[C@H](C)[C@H](O)C#C[C@H]1CCC(=O)[C@@H]1CC=CCCCC(=O)OC	338 mg/kg
CCN(CC)CCNC(=O)c1ccc(N)cc1	1950 mg/kg
C=COCC(C)CCCC(C)CC(C)C (configuration not stated)	1220 mg/kg
C=C(OP(=O)(OC)OC)P(=O)(OC)OC	287 mg/kg
CCNc1ccc(C(=C2C=CC(=[N+](C)C)C=C2)c2ccc(N(C)C)cc2)c2ccccc12	960 mg/kg
O=S(=O)(O)CO	3200 mg/kg
Clc1ccc2ccccc2c1	2080 mg/kg
CCCCCCCCCCCCc1ccc(C)c(C[N+](C)(C)C)c1	389 mg/kg
O=C(O)c1cc(N=Nc2ccc(S(=O)(=O)O)cc2)ccc1O	14000 mg/kg

Compound	LD50
Nc1ccc(N=Nc2ccccc2)c(N)n1	472 mg/kg and 403 mg/kg
CC(Cl)(Cl)[N+](=O)[O-]	410 mg/kg
N#CC(=O)c1cccc(Cl)c1Cl	50 mg/kg
COc1cc2c(cc1OC)-c1c(OC)c(OC)cc3c1[C@H](C2)N(C)CC3	545 mg/kg
CCC(=O)Nc1ccc2nc(C(F)(F)F)[nH]c2c1	8.92 mg/kg
c1ccc(C(OCCN2CCOCC2)c2ccccc2)cc1	916 mg/kg
CCOC(=O)CC(SP(=O)(OC)OC)C(=O)OCC (configuration not stated)	158 mg/kg
Cc1c(-c2ccccc2)oc2c(C(=O)O)cccc2c1=O	1660 mg/kg
CC1=CCC(=C(C)C)CC1	4390 mg/kg
Clc1cccc2c1Oc1c(Cl)c(Cl)c(Cl)c(Cl)c1O2	0.206 mg/kg
Clc1cc(Cl)c(Cl)c(-c2cc(Cl)c(-c3cc(Cl)c(Cl)c(Cl)c3)c(Cl)c2Cl)c1	19200 mg/kg
CC(=O)C=Cc1ccccc1	2030 mg/kg
CCc1ccc(=O)n(CSP(=S)(OC)OC)n1	30 mg/kg
O=NN(CCCl)C(=O)NCCS(=O)(=O)NCc1ccccc1	250 mg/kg
CN(C)C1CSSSC1	195 mg/kg
ClCCOCCCl	75 mg/kg
CC(=O)Nc1ccc([N+](=O)[O-])c(Cl)n1	1940 mg/kg
CCN1CN(CO)C(=O)N(CO)C1	8220 mg/kg
N#Cc1ccc2nc(C(F)(F)F)[nH]c2c1	4.41 mg/kg
CCCOC(=O)COc1cccc(C(C)(C)C)c1	1800 mg/kg
O=C(O)C(c1ccccc1)c1ccccc1	5540 mg/kg
COP(=S)(OC)C(C(=O)O)c1ccccc1 (configuration not stated)	4500 mg/kg
FC(F)(F)c1nc2c(Cl)c(Br)c(Br)c(Br)c2[nH]1	5.25 mg/kg
